These results are taken from paper PMC7689490, “Designed CXCR4 mimic acts as a soluble chemokine receptor that blocks atherogenic inflammation by agonist-specific targeting” (Nature Communications, 2020).

Data set [1] relates to primary mouse spleen B lymphocytes. The data set is described as follows: MIF-triggered Transwell chemotaxis of primary splenic B cells.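 Also: migration tracked over 4 h at 37 °C, read out as transmigrated cells counted by flow cytometry with absolute counting beads.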 The format is cell-based. Conditions: 16 nM MIF; peptide at 5-fold molar excess (80 nM).
Experimental: Briefly, splenic B cells were isolated by negative depletion using a Pan B Cell Isolation Kit (Miltenyi Biotec, Bergisch Gladbach, Germany). […] Chemotaxis was followed for 4 h at 37 °C in a humidified atmosphere of 5% CO2. Migrated cells were counted by flow cytometry using CountBright™ Absolute Counting Beads (Molecular Probes-Invitrogen).
Data set [2] concerns the target T1, MIF (Homo sapiens, UniProt P14174).
T1 construct: made in house; host or cells: E. coli BL21/DE3 (pET11b)
T1 sequence (P14174 2-115): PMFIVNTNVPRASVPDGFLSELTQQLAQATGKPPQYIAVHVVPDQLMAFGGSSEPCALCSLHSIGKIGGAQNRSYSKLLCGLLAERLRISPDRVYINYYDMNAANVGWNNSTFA
Nature of the data set: Fluorescence spectroscopic titration of CXCR4 ectodomain peptides (and ISO-1) with MIF. The format is binding.
Experimental: Fluorescence spectroscopic titrations were performed using a JASCO FP-6500 fluorescence spectrophotometer.

The test system of data set [3] is primary human monocyte-derived macrophages. The data set is described as follows: MIF-mediated DiI-LDL uptake / foam cell formation. The format is cell-based. Conditions: 80 nM MIF. As to the method: (§1) After washing with imaging solution (MEM without phenol red containing 30 mM HEPES, 0.5 g/L NaHCO3, pH 7.4, and 0.2% BSA), cells were exposed to 50 µg mL^−1 1,1′-dioctadecyl-3,3,3′3′-tetramethylindocarbocyanine-labeled oxidized LDL (DiI-oxLDL) or DiI-labeled native LDL (DiI-LDL) for 30 min at 4 °C, followed by incubation at 37 °C for 20 min. Cells were washed with ice-cold imaging solution (pH 3.5), fixed, and counter-stained with Hoechst 33258.

Data set [4] has the same test system. Nature of the data set: MIF-mediated DiI-oxLDL uptake / foam cell formation. It counts as cell-based. The following applies: 80 nM MIF; AMD3100 10 µM. The method, then: as §1
A short description of data set [5]: in vitro. The following applies: human, plasma.
Experimental: (§2) Mouse plasma was prepared from blood of wildtype C57/BL6 mice by standard procedure. […] Samples were then diluted in 2x Novex Tricine SDS sample buffer (Life Technologies) at a ratio of 1:6, electrophoresed in a 10–20% Tricine gel, and red fluorescent bands directly imaged with an Odyssey® Fc imager. Human plasma was prepared from blood of healthy volunteers by standard procedure.
Data set [6] is described as follows: Circular dichroism (CD) spectroscopy (conformation, concentration dependence). The format is physicochemical. Conditions: far-UV CD at 1-20 µM, 10 mM sodium phosphate pH 7.4, 1% HFIP; region 210-225 nm; compared with msR4M-L1. The method, then:
Briefly, far-UV CD measurements were carried out between 195 and 250 nm. The response time was set at 1 s, intervals at 0.1 nm, and bandwidth at 1 nm. All spectra were measured at RT and represent an average of three recorded spectra. Scans were recorded for the ectodomain mimic peptides at a concentration of 1–20 µM in 10 mM sodium phosphate buffer, pH 7.4, containing 1% HFIP, following dilution of freshly made peptide stock solution in HFIP (4 °C) into the buffer-containing cuvette. […] The background spectrum of buffer/1% HFIP alone was subtracted from the spectra of the peptides.
(In general: CD spectra are sensitive to the conformation of chiral molecules.)

In data set [7] the test system is MIF/CD74. Conditions: read-out: IC50 value for MIF/CD74 binding; ref [16],[43]; cited from earlier work. An excerpt:
Specificity of the inhib ...

Data set [8] has as its system pAMPK/AMPK in HCM. Nature of the data set: MIF/CD74-triggered AMPK signaling in human cardiomyocytes (HCM). It counts as cell-based. The method, then: HCMs (2 × 10^5 per well) were plated in 12-well plates and maintained for 2 days with cultured medium containing 5% FCS. Before stimulation, medium was replaced by fresh myocyte basal medium containing 0.05% FCS and HCMs rested for 16 h. Surface CD74 expression on HCMs was verified by flow cytometry (FITC-conjugated anti-human CD74 (1:100 dilution), FITC-IgG2 (isotype control) (BD Pharmingen), 1 h/4 °C in the dark, BD FACSVerse™ flow cytometer, FlowJo software). […] After treatment, cells were lysed and subjected to SDS-PAGE (10%)/Western blotting using NuPAGE® lithium dodecyl sulfate (LDS)/dithiothreitol (DTT) lysis buffer-containing PhosSTOP^TM reagent (Roche Applied Science). […] Anti-rabbit horse-radish peroxidase (HRP)-conjugated antibody (1:10000, GE Healthcare, Freiburg, Germany) was used for development and signals quantitated by chemiluminescence using an Odyssey® Fc imager. Unprocessed scans of the Western blots are supplied in the Source Data file.

Data set [9] is described as follows: in vitro. The following applies: C57/BL6, mouse, plasma.
Experimental: as §2
Data set [10] in a line: in vivo.
Experimental: Plasma was immediately separated by centrifugation at 3000 rpm for 10 min at 4 °C, and placed on ice protected from light. Plasma aliquots were diluted (1:1) with SDS-PAGE sample buffer, boiled, analyzed in 10–20% Tricine SDS-PAGE gels, and red fluorescent bands imaged by Odyssey® Fc imager.

Usually amount remaining stands for the share of the starting amount still present when the sample was taken. A low value points to more turnover. For orientation: half-life means how long it takes for the measured level to halve.

Structures are written as SMILES. Values joined by “and” are separate entries in the source; they are usually repeats but may differ in a detail not shown here. Identical values can stand only once. Like-named read-outs stand apart in the source and are kept apart here. Where a SMILES comes first, the peptide text is derived from it. A value given as a limit tells only on which side of the number the result lay.

In the case of `CC[C@H](C)[C@H](NC(=O)[C@H](Cc1ccc(O)cc1)NC(=O)[C@H](CCCNC(=N)N)NC(=O)[C@H](CC(=O)O)NC(=O)CCCCCCCCCCCNC(=O)CCCCCNC(=O)[C@H](CCCCN)NC(=O)[C@H](CS)NC(=O)[C@H](CC(C)C)NC(=O)[C@H](C)NC(=O)[C@H](CC(N)=O)NC(=O)CNC(=O)[C@H](C)NC(=O)[C@H](C)NC(=O)[C@H](C)NC(=O)[C@H](CC(N)=O)NC(=O)[C@H](C)NC(=O)[C@@H](NC(=O)[C@H](C)NC(=O)[C@@H](N)CC(=O)O)C(C)C)C(=O)N[C@@H](CS)C(=O)N[C@@H](CC(=O)O)C(=O)N[C@@H](CCCNC(=N)N)C(=O)N[C@@H](C)C(=O)N[C@@H](C)C(=O)N1CCC[C@H]1C(=O)N[C@@H](CC(N)=O)C(=O)N[C@@H](CC(=O)O)C(=O)N[C@@H](CC(C)C)C(=O)N[C@@H](C)C(=O)N[C@H](C(N)=O)C(C)C` [msR4M-L1(7xAla)] (HELM PEPTIDE1{D.A.V.A.N.A.A.A.G.N.A.L.C.K.[O=C(CCCCCN[*:1])[*:2]].[O=C(CCCCCCCCCCCN[*:1])[*:2]].D.R.Y.I.C.D.R.A.A.P.N.D.L.A.V.[am]}$$$$V2.0), in [1], the “inhibition of MIF-mediated B-cell chemotaxis” value is on record as “failed to inhibit”. Further, the Kd in data set [2] is greater than 1 µM; in [2] (App. Kd Fluos-peptide/MIF, 1st curve, fluorescence spectroscopy, replicate 1), greater than 1 µM; in data set [2] (App. Kd Fluos-peptide/MIF, 2nd curve, fluorescence spectroscopy, replicate 2), greater than 1 µM; in [2] (App. Kd Fluos-peptide/MIF, 3rd curve, fluorescence spectroscopy, replicate 3), greater than 1 µM; in [2] (app. KD Fluos-labeled alanine analog/MIF, fluorescence titration spectroscopy, n=3), greater than 1 µM. In data set [3], the “inhibition of MIF-mediated DiI-LDL uptake” value was “failed to inhibit”.
As to `c1cc(CN2CCCNCCNCCCNCC2)ccc1CN1CCCNCCNCCCNCC1` [AMD3100], the “DiI-LDL uptake (rel. units), MIF + AMD3100” value in data set [3] (control ~1, MIF alone 2.09-3.63, individual experiments (four-times-two)) is 0.6486 and 2.2972 and 2.822 and 1.2299 and 1.463 and 1.618 and 1.791 and 1.537. Moreover, in [4], the “effect on MIF-mediated DiI-oxLDL uptake” value was “blocked”.
Take `CC[C@H](C)[C@H](NC(=O)[C@H](Cc1ccc(O)cc1)NC(=O)[C@H](CCCNC(=N)N)NC(=O)[C@H](CC(=O)O)NC(=O)CCCCCCCCCCCNC(=O)CCCCCNC(=O)[C@H](CCCCN)NC(=O)[C@H](CS)NC(=O)[C@H](CC(C)C)NC(=O)[C@H](Cc1ccccc1)NC(=O)[C@H](CC(N)=O)NC(=O)CNC(=O)[C@H](Cc1ccccc1)NC(=O)[C@H](Cc1ccc(O)cc1)NC(=O)[C@H](Cc1c[nH]c2ccccc12)NC(=O)[C@H](CC(N)=O)NC(=O)[C@H](C)NC(=O)[C@@H](NC(=O)[C@H](C)NC(=O)[C@H](CC(=O)O)NC(=O)CCCCCNC(=O)CCCC[C@@H]1SC[C@@H]2NC(=O)N[C@@H]21)C(C)C)C(=O)N[C@@H](CS)C(=O)N[C@@H](CC(=O)O)C(=O)N[C@@H](CCCNC(=N)N)C(=O)N[C@@H](Cc1ccccc1)C(=O)N[C@@H](Cc1ccc(O)cc1)C(=O)N1CCC[C@H]1C(=O)N[C@@H](CC(N)=O)C(=O)N[C@@H](CC(=O)O)C(=O)N[C@@H](CC(C)C)C(=O)N[C@@H](Cc1c[nH]c2ccccc12)C(=O)N[C@H](C(N)=O)C(C)C` [biotin-msR4M-L1]: the amount remaining at 16 h, 13.7 µM in [5] was roughly 45%.
In the case of `CC[C@H](C)[C@H](NC(=O)[C@H](Cc1ccc(O)cc1)NC(=O)[C@H](CCCNC(=N)N)NC(=O)[C@H](CC(=O)O)NC(=O)CCCCCCCCCCCNC(=O)COCCOCCNC(=O)[C@H](CCCCN)NC(=O)[C@H](CS)NC(=O)[C@H](CC(C)C)NC(=O)[C@H](Cc1ccccc1)NC(=O)[C@H](CC(N)=O)NC(=O)CNC(=O)[C@H](Cc1ccccc1)NC(=O)[C@H](Cc1ccc(O)cc1)NC(=O)[C@H](Cc1c[nH]c2ccccc12)NC(=O)[C@H](CC(N)=O)NC(=O)[C@H](C)NC(=O)[C@@H](NC(=O)[C@H](C)NC(=O)[C@@H](N)CC(=O)O)C(C)C)C(=O)N[C@@H](CS)C(=O)N[C@@H](CC(=O)O)C(=O)N[C@@H](CCCNC(=N)N)C(=O)N[C@@H](Cc1ccccc1)C(=O)N[C@@H](Cc1ccc(O)cc1)C(=O)N1CCC[C@H]1C(=O)N[C@@H](CC(N)=O)C(=O)N[C@@H](CC(=O)O)C(=O)N[C@@H](CC(C)C)C(=O)N[C@@H](Cc1c[nH]c2ccccc12)C(=O)N[C@H](C(N)=O)C(C)C` [msR4M-L2], the “inhibition of MIF-mediated B-cell chemotaxis” value in data set [1] is “fully blocked”. Also, in [6], the “aggregation propensity from concentration-dependent CD signal” value was “higher aggregation propensity”.
For the molecule `COC(=O)CC1CC(c2ccc(O)cc2)=NO1` (centres unmarked) [ISO-1], the IC50 in data set [7] is 10 µM. Moreover, the “Fig. 4e, Mean Diff, (Tukey's multiple comparisons test)” value is 0.3348 in data set [8] (B-C: MIF alone vs. MIF + ISO-1 3.1), 0.4593 in [8] (B-D: MIF alone vs. MIF + ISO-1 15.6), 0.6907 in data set [8] (B-E: MIF alone vs. MIF + ISO-1 31.3) and 0.8729 in [8] (B-F: MIF alone vs. MIF + ISO-1 62.5).
In data set [9], `CC[C@H](C)[C@H](NC(=O)[C@H](Cc1ccc(O)cc1)NC(=O)[C@H](CCCNC(=N)N)NC(=O)[C@H](CC(=O)O)NC(=O)CCCCCCCCCCCNC(=O)CCCCCNC(=O)[C@H](CCCCN)NC(=O)[C@H](CS)NC(=O)[C@H](CC(C)C)NC(=O)[C@H](Cc1ccccc1)NC(=O)[C@H](CC(N)=O)NC(=O)CNC(=O)[C@H](Cc1ccccc1)NC(=O)[C@H](Cc1ccc(O)cc1)NC(=O)[C@H](Cc1c[nH]c2ccccc12)NC(=O)[C@H](CC(N)=O)NC(=O)[C@H](C)NC(=O)[C@@H](NC(=O)[C@H](C)NC(=O)[C@H](CC(=O)O)NC(=O)c1ccc2c(c1)C(=O)OC21c2ccc(N(C)C)cc2Oc2cc(N(C)C)ccc21)C(C)C)C(=O)N[C@@H](CS)C(=O)N[C@@H](CC(=O)O)C(=O)N[C@@H](CCCNC(=N)N)C(=O)N[C@@H](Cc1ccccc1)C(=O)N[C@@H](Cc1ccc(O)cc1)C(=O)N1CCC[C@H]1C(=O)N[C@@H](CC(N)=O)C(=O)N[C@@H](CC(=O)O)C(=O)N[C@@H](CC(C)C)C(=O)N[C@@H](Cc1c[nH]c2ccccc12)C(=O)N[C@H](C(N)=O)C(C)C` [TAMRA-msR4M-L1] showed a half-life at 482 nM of roughly 20 h. Moreover, the level at 24 h in data set [10] (C57/BL6, mouse, 50 ug) is greater than 100 ng/mL. The molecule further yielded a level at 48 h in [10] (C57BL/6, mouse, ip, 50 ug per mouse) of roughly 100 ng/mL.
